Patent US10435399B2, “HDAC6 inhibitory heterocyclic compound” (TAKEDA PHARMACEUTICAL COMPANY LIMITED, priority 2017, dated 2019)

biological target: T1, HDAC6 enzyme (Homo sapiens, UniProt Q9UBN7); test: HDAC6 enzyme inhibitory activity (HDAC-Glo I/II Assay kit); type: biochemical; conditions: 10 μM; wells without enzyme = 100% inhibition; read-out: HDAC6 inhibitory rate (%) (10 μM)
T1 construct: transducing full length HDAC6 gene into Sf-9 insect cells; GST; purchased SignalChem; host or cells: Sf-9 insect cells
T1 sequence (Q9UBN7 1-1215): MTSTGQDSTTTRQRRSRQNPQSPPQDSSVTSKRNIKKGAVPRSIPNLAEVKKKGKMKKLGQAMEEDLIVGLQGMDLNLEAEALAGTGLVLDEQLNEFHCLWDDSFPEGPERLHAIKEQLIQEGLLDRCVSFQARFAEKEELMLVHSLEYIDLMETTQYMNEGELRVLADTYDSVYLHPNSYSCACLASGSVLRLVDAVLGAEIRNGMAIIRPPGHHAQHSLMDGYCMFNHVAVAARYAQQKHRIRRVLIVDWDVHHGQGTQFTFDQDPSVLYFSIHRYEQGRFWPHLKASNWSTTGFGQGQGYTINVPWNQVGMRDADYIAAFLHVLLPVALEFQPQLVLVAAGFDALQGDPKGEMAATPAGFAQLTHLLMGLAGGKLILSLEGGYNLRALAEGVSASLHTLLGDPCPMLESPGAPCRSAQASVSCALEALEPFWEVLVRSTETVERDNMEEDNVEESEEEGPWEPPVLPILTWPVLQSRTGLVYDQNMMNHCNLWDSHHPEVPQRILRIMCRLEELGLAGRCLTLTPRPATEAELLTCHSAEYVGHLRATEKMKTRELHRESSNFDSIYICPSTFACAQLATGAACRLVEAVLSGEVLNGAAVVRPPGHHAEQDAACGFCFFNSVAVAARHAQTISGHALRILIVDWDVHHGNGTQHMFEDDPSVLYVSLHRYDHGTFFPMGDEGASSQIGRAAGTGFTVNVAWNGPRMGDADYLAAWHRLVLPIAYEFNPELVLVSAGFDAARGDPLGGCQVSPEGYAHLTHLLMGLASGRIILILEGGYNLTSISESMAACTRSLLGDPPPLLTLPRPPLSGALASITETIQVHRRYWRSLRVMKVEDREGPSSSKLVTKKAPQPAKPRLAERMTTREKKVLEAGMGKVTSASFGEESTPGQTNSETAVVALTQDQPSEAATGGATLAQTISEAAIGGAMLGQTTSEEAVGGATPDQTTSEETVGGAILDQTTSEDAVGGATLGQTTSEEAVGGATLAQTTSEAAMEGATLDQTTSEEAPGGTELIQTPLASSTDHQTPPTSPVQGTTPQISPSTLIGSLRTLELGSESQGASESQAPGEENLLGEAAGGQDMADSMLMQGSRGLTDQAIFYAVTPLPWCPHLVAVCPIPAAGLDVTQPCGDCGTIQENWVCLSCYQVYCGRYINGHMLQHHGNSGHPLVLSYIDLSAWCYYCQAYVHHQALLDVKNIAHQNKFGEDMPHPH
Summary of the method: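 Luminescent HDAC-Glo I/II readout after 20 min room-temperature reaction with substrate-developer, following 60 min compound–enzyme preincubation. Enzyme: full-length HDAC6 from Sf-9 cells, GST-purified; buffer 24 mM Tris-HCl pH 7.5, 0.01% Tween-20, glutathione, salts. Wells lacking enzyme define 100% inhibition.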

In order of rising inhibition at 10 µM:
1. O=C1c2cc(-c3nnc(C(F)F)o3)ccc2CN1Cc1ncc(F)cc1F [Example 147, 6-(5-(difluoromethyl)-1,3,4-oxadiazol-2-yl)-2-((3,5-difluoropyridin-2-yl)methyl)isoindolin-1-one]  93%
2. O=C1c2cc(-c3nnc(C(F)F)o3)ccc2CN1Cc1cc(C2CC2)on1 [Example 146, 2-((5-cyclopropyl-1,2-oxazol-3-yl)methyl)-6-(5-(difluoromethyl)-1,3,4-oxadiazol-2-yl)isoindolin-1-one]  94%
3. O=C1c2cc(-c3nnc(C(F)F)o3)ccc2CN1Cc1ncccc1Cl [Example 143, 2-((3-chloropyridin-2-yl)methyl)-6-(5-(difluoromethyl)-1,3,4-oxadiazol-2-yl)isoindolin-1-one]  95%
4. O=C1c2cc(-c3nnc(C(F)F)o3)cc(F)c2CN1Cc1ccccn1 [Example 155, 6-(5-(difluoromethyl)-1,3,4-oxadiazol-2-yl)-4-fluoro-2-(pyridin-2-ylmethyl)isoindolin-1-one]  95%
5. O=C1c2cc(-c3nnc(C(F)F)o3)ccc2CN1Cc1cncc(C(F)(F)F)c1 [Example 144, 6-(5-(difluoromethyl)-1,3,4-oxadiazol-2-yl)-2-((5-(trifluoromethyl)pyridin-3-yl)methyl)isoindolin-1-one]  97%
6. O=C(N[C@@H]1CCCC[C@H]1N1Cc2ncc(-c3nnc(C(F)F)o3)cc2C1=O)OC1CC1 [Example 150, cyclopropyl ((1R,2R)-2-(3-(5-(difluoromethyl)-1,3,4-oxadiazol-2-yl)-5-oxo-5,7-dihydro-6H-pyrrolo[3,4-b]pyridin-6-yl)cyclohexyl)carbamate]  97%
7. CC(F)(F)C(=O)N[C@@H]1CCCC[C@H]1N1Cc2ncc(-c3nnc(C(F)F)o3)cc2C1=O [Example 162, N-((1R,2R)-2-(3-(5-(difluoromethyl)-1,3,4-oxadiazol-2-yl)-5-oxo-5,7-dihydro-6H-pyrrolo[3,4-b]pyridin-6-yl)cyclohexyl)-2,2-difluoropropanamide]  97%
8. O=C1CCCCN1[C@@H]1COCC[C@H]1N1Cc2c(F)cc(-c3nnc(C(F)F)o3)cc2C1=O [Example 137, 6-(5-(difluoromethyl)-1,3,4-oxadiazol-2-yl)-4-fluoro-2-((3S,4R)-3-(2-oxopiperidin-1-yl)tetrahydro-2H-pyran-4-yl)isoindolin-1-one]  98%
9. O=C1OCCN1[C@@H]1CCCC[C@H]1N1Cc2c(F)cc(-c3nnc(C(F)F)o3)cc2C1=O [Example 138, 6-(5-(difluoromethyl)-1,3,4-oxadiazol-2-yl)-4-fluoro-2-((1R,2R)-2-(2-oxo-1,3-oxazolidin-3-yl)cyclohexyl)isoindolin-1-one]  98%
10. O=C1c2cc(-c3nnc(C(F)F)o3)ccc2CN1Cc1ccc(F)cc1 [Example 151, 6-(5-(difluoromethyl)-1,3,4-oxadiazol-2-yl)-2-(4-fluorobenzyl)isoindolin-1-one]  98%
11. CNC(=O)O[C@@H]1CCCC[C@H]1N1Cc2ccc(-c3nnc(C(F)F)o3)cc2C1=O [Example 154, (1R,2R)-2-(6-(5-(difluoromethyl)-1,3,4-oxadiazol-2-yl)-1-oxo-1,3-dihydro-2H-isoindol-2-yl)cyclohexyl methylcarbamate]  98%
12. CN1CCN([C@@H]2CCCC[C@H]2N2Cc3ccc(-c4nnc(C(F)F)o4)cc3C2=O)C1=O [Example 157, 6-(5-(difluoromethyl)-1,3,4-oxadiazol-2-yl)-2-((1R,2R)-2-(3-methyl-2-oxoimidazolidin-1-yl)cyclohexyl)isoindolin-1-one]  98%
13. O=C(N[C@@H]1CCCC[C@H]1N1C(=O)c2ccc(-c3nnc(C(F)F)o3)cc2C1=O)OCc1ccccc1 [Example 142, benzyl ((1R,2R)-2-(5-(5-(difluoromethyl)-1,3,4-oxadiazol-2-yl)-1,3-dioxo-1,3-dihydro-2H-isoindol-2-yl)cyclohexyl)carbamate]  99%
14. CC(C)(C)OC(=O)N[C@@H]1CCCC[C@H]1N1Cc2c(F)cc(-c3nnc(C(F)F)o3)cc2C1=O [Example 148, tert-butyl ((1R,2R)-2-(6-(5-(difluoromethyl)-1,3,4-oxadiazol-2-yl)-4-fluoro-1-oxo-1,3-dihydro-2H-isoindol-2-yl)cyclohexyl)carbamate]  99%
15. CC(=O)N[C@@H]1CCCC[C@H]1N1Cc2c(F)cc(-c3nnc(C(F)F)o3)cc2C1=O [Example 152, N-((1R,2R)-2-(6-(5-(difluoromethyl)-1,3,4-oxadiazol-2-yl)-4-fluoro-1-oxo-1,3-dihydro-2H-isoindol-2-yl)cyclohexyl)acetamide]  99%
16. COC(=O)N[C@@H]1CCCC[C@H]1N1Cc2ncc(-c3nnc(C(F)F)o3)cc2C1=O [Example 161, methyl ((1R,2R)-2-(3-(5-(difluoromethyl)-1,3,4-oxadiazol-2-yl)-5-oxo-5,7-dihydro-6H-pyrrolo[3,4-b]pyridin-6-yl)cyclohexyl)carbamate]  99%
17. O=C1c2cc(-c3nnc(C(F)F)o3)cnc2CN1Cc1ccccc1 [Example 139, 6-benzyl-3-(5-(difluoromethyl)-1,3,4-oxadiazol-2-yl)-6,7-dihydro-5H-pyrrolo[3,4-b]pyridin-5-one]  100%
18. C[C@H](c1ccc(F)cc1)N1Cc2ncc(-c3nnc(C(F)F)o3)cc2C1=O [Example 140, 3-(5-(difluoromethyl)-1,3,4-oxadiazol-2-yl)-6-((1R)-1-(4-fluorophenyl)ethyl)-6,7-dihydro-5H-pyrrolo[3,4-b]pyridin-5-one]  100%
19. C[C@@H](c1ccc(F)cc1)N1Cc2ncc(-c3nnc(C(F)F)o3)cc2C1=O [Example 141, 3-(5-(difluoromethyl)-1,3,4-oxadiazol-2-yl)-6-((1S)-1-(4-fluorophenyl)ethyl)-6,7-dihydro-5H-pyrrolo[3,4-b]pyridin-5-one]  100%
20. CS(=O)(=O)c1cccc(CN2Cc3ccc(-c4nnc(C(F)F)o4)cc3C2=O)c1 [Example 145, 6-(5-(difluoromethyl)-1,3,4-oxadiazol-2-yl)-2-(3-(methylsulfonyl)benzyl)isoindolin-1-one]  100%
21. COC(=O)N[C@@H]1CCCC[C@H]1N1Cc2c(F)cc(-c3nnc(C(F)F)o3)cc2C1=O [Example 153, methyl ((1R,2R)-2-(6-(5-(difluoromethyl)-1,3,4-oxadiazol-2-yl)-4-fluoro-1-oxo-1,3-dihydro-2H-isoindol-2-yl)cyclohexyl)carbamate]  100%
22. COc1ccccc1-c1ccccc1N1Cc2ccc(-c3nnc(C(F)F)o3)cc2C1=O [Example 156, 6-(5-(difluoromethyl)-1,3,4-oxadiazol-2-yl)-2-(2′-methoxybiphenyl-2-yl)isoindolin-1-one]  100%
23. Cc1cc(-c2ccccc2N2Cc3ccc(-c4nnc(C(F)F)o4)cc3C2=O)n(C)n1 [Example 158, 6-(5-(difluoromethyl)-1,3,4-oxadiazol-2-yl)-2-(2-(1,3-dimethyl-1H-pyrazol-5-yl)phenyl)isoindolin-1-one]  100%
24. Cc1nn(C)cc1-c1ccccc1N1Cc2ccc(-c3nnc(C(F)F)o3)cc2C1=O [Example 159, 6-(5-(difluoromethyl)-1,3,4-oxadiazol-2-yl)-2-(2-(1,3-dimethyl-1H-pyrazol-4-yl)phenyl)isoindolin-1-one]  100%
25. Cn1nccc1-c1ccccc1N1Cc2ccc(-c3nnc(C(F)F)o3)cc2C1=O [Example 160, 6-(5-(difluoromethyl)-1,3,4-oxadiazol-2-yl)-2-(2-(1-methyl-1H-pyrazol-5-yl)phenyl)isoindolin-1-one]  101%
26. O=C1c2cc(-c3nnc(C(F)F)o3)cnc2CN1[C@@H]1CCCC[C@H]1NC(=O)C1(C(F)(F)F)CC1 [Example 149, N-((1R,2R)-2-(3-(5-(difluoromethyl)-1,3,4-oxadiazol-2-yl)-5-oxo-5,7-dihydro-6H-pyrrolo[3,4-b]pyridin-6-yl)cyclohexyl)-1-(trifluoromethyl)cyclopropanecarboxamide]  102%
